Structures are written as SMILES.

The target of the test is T1, human Farnesoid X Receptor (FXR) ligand binding domain (GST-FXR LBD) (Homo sapiens, UniProt Q96RI1).
T1 construct: purchased Invitrogen
T1 sequence (Q96RI1 193-472 isoform Q96RI1-2): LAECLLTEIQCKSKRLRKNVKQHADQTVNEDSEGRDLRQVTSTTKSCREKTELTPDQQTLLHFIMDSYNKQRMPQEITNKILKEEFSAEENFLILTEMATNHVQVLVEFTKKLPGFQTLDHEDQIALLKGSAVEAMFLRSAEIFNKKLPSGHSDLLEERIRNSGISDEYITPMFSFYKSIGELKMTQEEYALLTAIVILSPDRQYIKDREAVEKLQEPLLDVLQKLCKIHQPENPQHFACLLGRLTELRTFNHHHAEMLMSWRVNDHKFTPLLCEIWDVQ
Nature of the test: Human GST-FXR LBD co-activator interaction assay (FXR HTRF assay). In kind it is biochemical. To be noted: GST-FXR LBD interaction with biotin-labeled SRC-1 peptide, FRET, response relative to GW4064, read-out: FXR coactivator interaction assay (HTRF). From the text:
Human GST-FXR LBD Co-Activator Interaction Assay
The FXR HTRF assay is a biochemical assay measuring the interaction between FXR and a coactivator protein (SRC1). The ligand-induced interaction with a coactivator protein is a critical step in transcriptional activation by FXR. Thus, this is an assay designed to measure FXR agonist activity of the test compounds.
Recombinant human Farnesoid X Receptor (FXR) ligand binding domain (amino acids 193-472) fused to glutathione S-transferase (GST) purified protein (GST-FXR LBD) was purchased (Invitrogen). The ligand-dependent interaction between GST-FXR LBD and a peptide derived from Steroid Receptor Coactivator-1 (SRC-1) was monitored by Fluorescence Resonance Energy Transfer (FRET). […] Test compounds (in DMSO solution) and detection reagents (anti-GST-Cryptate labeled antibody and Streptavidin-XL665 conjugate; CisBio) were added in assay buffer containing 50 mM KF. Plates are incubated at room temperature in the dark for 2.5 hrs before reading on an Envision (PerkinElmer) at 665 nm and 590 nm. The HTRF assay results were calculated from the 665 nm/590 nm ratio (ratio=(A665 nm/A590 nm)×10^4) and expressed in Delta F %=(Ratiosample−Rationegative)/Rationegative×100.
A negative control (without Streptavidin-XL665) was run with each assay and represented the background fluorescence. A reference FXR agonist, (E)-3-(2-chloro-4-((3-(2,6-dichlorophenyl)-5-isopropylisoxazol-4-yl)methoxy)styryl)benzoic acid (Compound GW4064), was included in each experiment as positive control. The efficacy of each test compound was compared to that of GW4064. At each concentration, the relative activity of the test compound was expressed as Response %=(Rsample−RDMSO)/(Rpositive−RDMSO), where Rsample is the HTRF response (expressed in Delta F %) for the test compound, Rpositive is the maximal response for GW4064 at saturating concentrations, and RDMSO is the response for DMSO control. The EC50 values were calculated using GraphPad Prism (GraphPad Software) using non-linear regression curve fit (log(agonist) vs. response-variable slope (four parameters)).
In the case of `Cn1nc(C(=O)N(CCNc2cc(C(=O)O)ccc2F)Cc2ccccc2F)c2c1-c1cc(F)ccc1OC2` [Compound 69, 4-fluoro-3-((2-(8-fluoro-N-(2-fluorobenzyl)-1-methyl-1,4-dihydrochromeno[4,3-c]pyrazole-3-carboxamido)ethyl)amino)benzoic acid], the EC50 was 25 nM.

For `Cn1nc(C(=O)N(Cc2ccc(C(=O)O)cc2)Cc2cccc(F)c2)c2c1-c1cc(F)ccc1OC2` [Compound 77, 4-((8-fluoro-N-(3-fluorobenzyl)-1-methyl-1,4-dihydrochromeno[4,3-c]pyrazole-3-carboxamido)methyl)benzoic acid], the EC50 was 7.9 nM.

Take `Cn1nc(C(=O)N(CC(=O)Nc2cccc(C(=O)O)c2)Cc2ccccc2F)c2c1-c1cc(Cl)c(F)cc1OC2` [Compound 25, 3-(2-(8-chloro-7-fluoro-N-(2-fluorobenzyl)-1-methyl-1,4-dihydrochromeno[4,3-c]pyrazole-3-carboxamido)acetamido)benzoic acid]: the EC50 worked out at 0.7 nM.

For the compound `Cn1nc(C(=O)N(CCOc2ccc(C(=O)O)cc2F)Cc2ccccc2)c2c1-c1cc(Cl)ccc1OC2` [Compound 55, 4-(2-(N-benzyl-8-chloro-1-methyl-1,4-dihydrochromeno[4,3-c]pyrazole-3-carboxamido)ethoxy)-3-fluorobenzoic Acid], the EC50 was 13 nM.

On to `Cn1nc(C(=O)N(Cc2ccccc2F)Cc2ccc(C(=O)O)cc2F)c2c1-c1cc(Cl)ccc1OC2` [Compound 93, 4-((8-chloro-N-(2-fluorobenzyl)-1-methyl-1,4-dihydrochromeno[4,3-c]pyrazole-3-carboxamido)methyl)-3-fluorobenzoic acid], for which the EC50 was 13 nM.

Turning to `Cn1nc(C(=O)N(CC(=O)Nc2cc(C(=O)O)ccc2F)Cc2ccccc2)c2c1-c1cc(Cl)ccc1OC2` [Compound 29, 3-(2-(N-benzyl-8-chloro-1-methyl-1,4-dihydrochromeno[4,3-c]pyrazole-3-carboxamido)acetamido)-4-fluorobenzoic acid], the EC50 was determined as 0.67 nM.

Turning to `Cn1nc(C(=O)N(Cc2ccc(C(=O)O)cc2)Cc2ccc3[nH]ccc3c2)c2c1-c1cc(Cl)ccc1OC2` [Compound 86, 4-((N-((1H-indol-5-yl)methyl)-8-chloro-1-methyl-1,4-dihydrochromeno[4,3-c]pyrazole-3-carboxamido)methyl)benzoic acid], the EC50 amounted to 12 nM.

Consider `Cc1cccc2c1OCc1c(C(=O)N(CC(=O)Nc3cccc(C(=O)O)c3)Cc3ccccc3F)nn(C)c1-2` [Compound 6, 3-(2-(N-(2-fluorobenzyl)-1,6-dimethyl-1,4-dihydrochromeno[4,3-c]pyrazole-3-carboxamido)acetamido)benzoic acid], for which the EC50 stood at 2.4 nM.

As for `Cn1nc(C(=O)N(CCOc2ccc(C(=O)O)cc2)Cc2ccccc2F)c2c1-c1cc(Cl)ccc1OC2` [Compound 45, 4-(2-(8-chloro-N-(2-fluorobenzyl)-1-methyl-1,4-dihydrochromeno[4,3-c]pyrazole-3-carboxamido)ethoxy)benzoic acid], the EC50 came out at 15 nM.

As for `Cn1nc(C(=O)N(CCOc2ccc(C(=O)O)cc2F)Cc2ccccc2)c2c1-c1cc(F)c(F)cc1OC2` [Compound 57, 4-(2-(N-benzyl-7,8-difluoro-1-methyl-1,4-dihydrochromeno[4,3-c]pyrazole-3-carboxamido)ethoxy)-3-fluorobenzoic acid], the EC50 came to 30 nM.

Take `Cc1ccc2c(c1)-c1c(c(C(=O)N(CC(=O)Nc3cccc(C(=O)O)c3)Cc3ccccc3F)nn1C)CO2` [Compound 5, 3-(2-(N-(2-fluorobenzyl)-1,8-dimethyl-1,4-dihydrochromeno[4,3-c]pyrazole-3-carboxamido)acetamido)benzoic acid]: the EC50 is 0.8 nM.

As to `Cn1nc(C(=O)N(Cc2ccc(C(=O)O)cc2)Cc2ccccc2F)c2c1-c1cc(Cl)ccc1OC2` [Compound 92, 4-((8-chloro-N-(2-fluorobenzyl)-1-methyl-1,4-dihydrochromeno[4,3-c]pyrazole-3-carboxamido)methyl)benzoic acid], the EC50 stood at 14 nM.

With `Cn1nc(C(=O)N(CCNc2cc(C(=O)O)ccc2F)Cc2cccc(F)c2)c2c1-c1cc(F)c(F)cc1OC2` [Compound 73, 3-((2-(7,8-difluoro-N-(3-fluorobenzyl)-1-methyl-1,4-dihydrochromeno[4,3-c]pyrazole-3-carboxamido)ethyl)amino)-4-fluorobenzoic acid], the EC50 turned out to be 20 nM.

Take `Cn1nc(C(=O)N(Cc2ccc(C(=O)O)cc2)Cc2cccc(F)c2)c2c1-c1cc(Cl)ccc1OC2` [Compound 95, 4-((8-chloro-N-(3-fluorobenzyl)-1-methyl-1,4-dihydrochromeno[4,3-c]pyrazole-3-carboxamido)methyl)benzoic acid]: the EC50 worked out at 3.5 nM.

Turning to `Cc1cc(C(=O)O)cc(C)c1OCCN(CC1CCCC1)C(=O)c1nn(C)c2c1COc1ccc(Cl)cc1-2` [Compound 49, 4-(2-(8-chloro-N-(cyclopentylmethyl)-1-methyl-1,4-dihydrochromeno[4,3-c]pyrazole-3-carboxamido)ethoxy)-3,5-dimethylbenzoic acid], the EC50 is 17 nM.

Consider `Cn1nc(C(=O)N(CC(=O)Nc2cc(C(=O)O)ccc2F)Cc2cccc(F)c2)c2c1-c1cc(Cl)ccc1OC2` [Compound 28, 3-(2-(8-chloro-N-(3-fluorobenzyl)-1-methyl-1,4-dihydrochromeno[4,3-c]pyrazole-3-carboxamido)acetamido)-4-fluorobenzoic acid], for which the EC50 worked out at 0.38 nM.

For the compound `Cc1cccc(CN(Cc2ccc(C(=O)O)cc2F)C(=O)c2nn(C)c3c2COc2ccc(F)cc2-3)c1` [Compound 85, 3-fluoro-4-((8-fluoro-1-methyl-N-(3-methylbenzyl)-1,4-dihydrochromeno[4,3-c]pyrazole-3-carboxamido)methyl)benzoic acid], the EC50 was determined as 35 nM.

For the compound `Cc1cc2c(cc1Cl)-c1c(c(C(=O)N(CC(=O)Nc3cccc(C(=O)O)c3)Cc3ccccc3F)nn1C)CO2` [Compound 13, 3-(2-(8-chloro-N-(2-fluorobenzyl)-1,7-dimethyl-1,4-dihydrochromeno[4,3-c]pyrazole-3-carboxamido)acetamido)benzoic acid], the EC50 was determined as 0.8 nM.

As to `Cn1nc(C(=O)N(CCNc2cc(C(=O)O)ccc2F)Cc2ccccc2F)c2c1-c1cc(Cl)ccc1OC2` [Compound 101, 3-((2-(8-chloro-N-(2-fluorobenzyl)-1-methyl-1,4-dihydrochromeno[4,3-c]pyrazole-3-carboxamido)ethyl)amino)-4-fluorobenzoic Acid], the EC50 stood at 5.5 nM.

In the case of `Cn1nc(C(=O)N(CC(=O)Nc2cc(C(=O)O)ccc2F)Cc2cccc(F)c2)c2c1-c1cc(F)c(F)cc1OC2` [Compound 18, 3-(2-(7,8-difluoro-N-(3-fluorobenzyl)-1-methyl-1,4-dihydrochromeno[4,3-c]pyrazole-3-carboxamido)acetamido)-4-fluorobenzoic acid], the EC50 amounted to 0.4 nM.

Consider `Cn1nc(C(=O)N(CC(=O)Nc2cc(C(=O)O)ccc2F)CC2CCCC2)c2c1-c1cc(Cl)ccc1OC2` [Compound 36, 3-(2-(8-chloro-N-(cyclopentylmethyl)-1-methyl-1,4-dihydrochromeno[4,3-c]pyrazole-3-carboxamido)acetamido)-4-fluorobenzoic Acid], for which the EC50 was 33 nM.

For `Cn1nc(C(=O)N(CC(=O)Nc2cccc(C(=O)O)c2)Cc2ccccc2)c2c1-c1cc(Cl)ccc1OC2` [Compound 31, 3-(2-(N-benzyl-8-chloro-1-methyl-1,4-dihydrochromeno[4,3-c]pyrazole-3-carboxamido)acetamido)benzoic acid], the EC50 stood at 0.47 nM.

For `Cn1nc(C(=O)N(CC(=O)Nc2cccc(C(=O)O)c2)Cc2ccccc2F)c2c1-c1ccc(Cl)cc1OC2` [Compound 9, 3-(2-(7-chloro-N-(2-fluorobenzyl)-1-methyl-1,4-dihydrochromeno[4,3-c]pyrazole-3-carboxamido)acetamido)benzoic acid], the EC50 turned out to be 3.6 nM.

As for `Cn1nc(C(=O)N(CCNc2cc(C(=O)O)ccc2F)Cc2ccccc2)c2c1-c1cc(F)c(F)cc1OC2` [Compound 74, 3-((2-(N-benzyl-7,8-difluoro-1-methyl-1,4-dihydrochromeno[4,3-c]pyrazole-3-carboxamido)ethyl)amino)-4-fluorobenzoic acid], the EC50 worked out at 55 nM.

Values taken from patent US11021446B2 (NOVARTIS AG, priority 2013, dated 2021).
